Source: US20170275298A1, “INHIBITORS OF THE RENAL OUTER MEDULLARY POTASSIUM CHANNEL” (Merck Sharp & Dohme Corp., priority 2014, published 2017)

What follows are compounds tested against T1, hROMK (hKir1.1) (Homo sapiens, UniProt P48048) (assay: Thallium Flux Assay (ROMK channel functional thallium flux assay)). Conditions: HEK293 cells stably expressing hROMK (hKir1.1); FluxOR thallium flux, FLIPR-Tetra, 30 min compound incubation; read-out: ROMK TI IC50.
T1 construct: expressed in transfected cells
T1 sequence (P48048 1-391): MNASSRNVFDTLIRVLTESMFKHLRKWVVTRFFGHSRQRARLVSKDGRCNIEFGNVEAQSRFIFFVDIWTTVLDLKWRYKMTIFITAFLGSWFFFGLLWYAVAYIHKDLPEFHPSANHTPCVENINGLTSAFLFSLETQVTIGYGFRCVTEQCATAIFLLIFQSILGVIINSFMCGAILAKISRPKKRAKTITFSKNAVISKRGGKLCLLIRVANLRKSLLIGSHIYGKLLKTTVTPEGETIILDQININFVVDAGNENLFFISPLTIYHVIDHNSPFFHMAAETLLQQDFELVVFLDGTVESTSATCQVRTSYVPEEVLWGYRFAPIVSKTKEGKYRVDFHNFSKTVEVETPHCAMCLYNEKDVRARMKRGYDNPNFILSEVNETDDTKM
Type: cell-based
How it was run: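 HEK293 cells stably expressing hROMK (hKir1.1) loaded with FluxOR dye 90 min at ambient temperature, then compound 30 min before thallium/potassium stimulant (final 3 mM Tl/0.3 mM K). ROMK-sensitive flux defined by 3 μM standard inhibitor; data as % fluorescence change.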

IC50 [nM] | Compound
61.4 | Cc1c([C@@H](O)CN2CCC3(CC2)CCN(c2sncc2Br)C3=O)ccc2c1COC2=O [Example 103, (R)-2-(4-bromoisothiazol-5-yl)-8-(2-hydroxy-2-(4-methyl-1-oxo-1,3-dihydroisobenzofuran-5-yl)ethyl)-2,8-diazaspiro[4.5]decan-1-one]
65.5 | Cc1cnsc1N1CCC2(CCN(C[C@H](O)c3ccc4c(c3C)COC4=O)CC2)C1=O [Example 104, (R)-8-(2-hydroxy-2-(4-methyl-1-oxo-1,3-dihydroisobenzofuran-5-yl)ethyl)-2-(4-methylisothiazol-5-yl)-2,8-diazaspiro[4.5]decan-1-one]
54.2 | Cc1c([C@@H](O)CN2CCC3(CC2)CCN(c2sncc2Cl)C3=O)ccc2c1COC2=O [Example 105, (R)-2-(4-chloroisothiazol-5-yl)-8-(2-hydroxy-2-(4-methyl-1-oxo-1,3-dihydroisobenzofuran-5-yl)ethyl)-2,8-diazaspiro[4.5]decan-1-one]
361 | Cc1c([C@@H](O)CN2CCC3(CC2)NCCN(c2ccc(=O)n(C)n2)C3=O)ccc2c1COC2=O [Example 106, (R)-9-(2-hydroxy-2-(4-methyl-1-oxo-1,3-dihydroisobenzofuran-5-yl)ethyl)-4-(1-methyl-6-oxo-1,6-dihydropyridazin-3-yl)-1,4,9-triazaspiro[5.5]undecan-5-one]
42 | Cc1c([C@@H](O)[C@H](C)N2CCC3(CCN(c4ccc(=O)n(C)n4)C3=O)CC2)ccc2c1COC2=O [Example 107, 8-((1R,2S)-1-hydroxy-1-(4-methyl-1-oxo-1,3-dihydroisobenzofuran-5-yl)propan-2-yl)-2-(1-methyl-6-oxo-1,6-dihydropyridazin-3-yl)-2,8-diazaspiro[4.5]decan-1-one]
56 | Cc1c([C@@H](O)[C@@H](C)N2CCC3(CCN(c4ccc(=O)n(C)n4)C3=O)CC2)ccc2c1COC2=O [Example 108, 8-((1R,2R)-1-hydroxy-1-(4-methyl-1-oxo-1,3-dihydroisobenzofuran-5-yl)propan-2-yl)-2-(1-methyl-6-oxo-1,6-dihydropyridazin-3-yl)-2,8-diazaspiro[4.5]decan-1-one]
20 | Cc1c(C(O)C(C)N2CCC3(CCN(c4ccc(=O)n(C)n4)C3=O)CC2)ccc2c1COC2=O [Example 109, 8-41S,2S)-1-hydroxy-1-(4-methyl-1-oxo-1,3-dihydroisobenzofuran-5-yl)propan-2-yl)-2-(1-methyl-6-oxo-1,6-dihydropyridazin-3-yl)-2,8-diazaspiro[4.5]decan-1-one]
279 | Cc1c([C@@H](O)CN2CCC3(CC2)CCN(c2cnn(C)c(=O)c2)CC3)ccc2c1COC2=O [Example 110, (R)-5-(9-(2-hydroxy-2-(4-methyl-1-oxo-1,3-dihydroisobenzofuran-5-yl)ethyl)-3,9-diazaspiro[5.5]undecan-3-yl)-2-methylpyridazin-3(2H)-one]
185 | Cc1c([C@@H](O)CN2CCC3(CC2)CCN(c2cncc(F)c2)CC3)ccc2c1COC2=O [Example 111, 9-(5-fluoropyridin-3-yl)-3-[(2R)-2-hydroxy-2-(4-methyl-1-oxo-1,3-dihydro-2-benzofuran-5-yl)ethyl]-9-aza-3-azoniaspiro[5.5]undecane]
282 | Cc1c([C@@H](O)CN2CCC3(CC2)CCN(c2ccccn2)CC3)ccc2c1COC2=O [Example 112, 3-[(2R)-2-hydroxy-2-(4-methyl-1-oxo-1,3-dihydro-2-benzofuran-5-yl)ethyl]-9-pyridin-2-yl-9-aza-3-azoniaspiro[5.5]undecane]
616 | Cc1c([C@@H](O)CN2CCC3(CC2)CCN(c2ccc(=O)n(C)n2)CC3)ccc2c1COC2=O [Example 113, (R)-6-(9-(2-hydroxy-2-(4-methyl-1-oxo-1,3-dihydroisobenzofuran-5-yl)ethyl)-3,9-diazaspiro[5.5]undecan-3-yl)-2-methylpyridazin-3(2H)-one]
384 | COc1ccnc(N2CCC3(CCN(C[C@H](O)c4ccc5c(c4C)COC5=O)CC3)CC2)n1 [Example 114, (R)-5-(1-hydroxy-2-(9-(4-methoxypyrimidin-2-yl)-3,9-diazaspiro[5.5]undecan-3-yl)ethyl)-4-methylisobenzofuran-1(3H)-one]
225 | Cc1c([C@@H](O)CN2CCC3(CC2)CCN(c2ccc(C(F)(F)F)cn2)CC3)ccc2c1COC2=O [Example 115, (R)-5-(1-hydroxy-2-(9-(5-(trifluoromethyl)pyridin-2-yl)-3,9-diazaspiro[5.5]undecan-3-yl)ethyl)-4-methylisobenzofuran-1(3H)-one]
6.28 | Cc1c([C@@H](O)CN2CCC3(CC2)CCN(c2cnccn2)CC3)ccc2c1COC2=O [Example 116, (R)-5-(1-hydroxy-2-(9-(pyrazin-2-yl)-3,9-diazaspiro[5.5]undecan-3-yl)ethyl)-4-methylisobenzofuran-1(3H)-one]
403 | Cc1c([C@@H](O)CN2CCC3(CC2)CCN(c2cc(F)ncn2)CC3)ccc2c1COC2=O [Example 117, (R)-5-(2-(9-(6-fluoropyrimidin-4-yl)-3,9-diazaspiro[5.5]undecan-3-yl)-1-hydroxyethyl)-4-methylisobenzofuran-1(3H)-one]
125 | COc1cnc(N2CCC3(CCN(C[C@H](O)c4ccc5c(c4C)COC5=O)CC3)CC2)nc1 [Example 118, (R)-5-(1-hydroxy-2-(9-(5-methoxypyrimidin-2-yl)-3,9-diazaspiro[5.5]undecan-3-yl)ethyl)-4-methylisobenzofuran-1(3H)-one]
967 | Cc1c([C@@H](O)CN2CCC3(CC2)CCN(c2ncc(C(F)(F)F)cc2F)CC3)ccc2c1COC2=O [Example 119, (R)-5-(2-(9-(3-fluoro-5-(trifluoromethyl)pyridin-2-yl)-3,9-diazaspiro[5.5]undecan-3-yl)-1-hydroxyethyl)-4-methylisobenzofuran-1(3H)-one]
236 | Cc1c([C@@H](O)CN2CCC3(CC2)CCN(c2cnc(C(=O)O)cn2)CC3)ccc2c1COC2=O [Example 120, (R)-5-(9-(2-hydroxy-2-(4-methyl-1-oxo-1,3-dihydroisobenzofuran-5-yl)ethyl)-3,9-diazaspiro[5.5]undecan-3-yl)pyrazine-2-carboxylic acid]
314 | Cc1c([C@@H](O)CN2CCC3(CC2)CCN(c2cncc(C(=O)O)n2)CC3)ccc2c1COC2=O [Example 121, (R)-6-(9-(2-hydroxy-2-(4-methyl-1-oxo-1,3-dihydroisobenzofuran-5-yl)ethyl)-3,9-diazaspiro[5.5]undecan-3-yl)pyrazine-2-carboxylic acid]
160 | Cc1c([C@@H](O)CN2CCC3(CC2)CCN(c2nccnc2N)CC3)ccc2c1COC2=O [Example 122, (R)-5-(2-(9-(3-aminopyrazin-2-yl)-3,9-diazaspiro[5.5]undecan-3-yl)-1-hydroxyethyl)-4-methylisobenzofuran-1(3H)-one]
8.45 | Cc1c([C@@H](O)CN2CCC3(CC2)CCN(c2ccc(Cl)nn2)CC3)ccc2c1COC2=O [Example 123, (R)-5-(2-(9-(6-chloropyridazin-3-yl)-3,9-diazaspiro[5.5]undecan-3-yl)-1-hydroxyethyl)-4-methylisobenzofuran-1(3H)-one]
37.1 | Cc1ccc(N2CCC3(CCN(C[C@H](O)c4ccc5c(c4C)COC5=O)CC3)CC2)nn1 [Example 124, (R)-5-(1-hydroxy-2-(9-(6-methylpyridazin-3-yl)-3,9-diazaspiro[5.5]undecan-3-yl)ethyl)-4-methylisobenzofuran-1(3H)-one]
492 | Cc1c([C@@H](O)CN2CCC3(CC2)CCN(c2cnc(C(F)(F)F)cn2)CC3)ccc2c1COC2=O [Example 125, (R)-5-(1-hydroxy-2-(9-(5-(trifluoromethyl)pyrazin-2-yl)-3,9-diazaspiro[5.5]undecan-3-yl)ethyl)-4-methylisobenzofuran-1(3H)-one]
281 | Cc1c([C@@H](O)CN2CCC3(CC2)CCN(c2cncc(Cl)n2)CC3)ccc2c1COC2=O [Example 126, (R)-5-(2-(9-(6-chloropyrazin-2-yl)-3,9-diazaspiro[5.5]undecan-3-yl)-1-hydroxyethyl)-4-methylisobenzofuran-1(3H)-one]
29.9 | Cc1c([C@@H](O)CN2CCC3(CC2)CCN(c2cnc(Br)cn2)CC3)ccc2c1COC2=O [Example 127, (R)-5-(2-(9-(5-bromopyrazin-2-yl)-3,9-diazaspiro[5.5]undecan-3-yl)-1-hydroxyethyl)-4-methylisobenzofuran-1(3H)-one]
581 | Cc1nccnc1N1CCC2(CCN(C[C@H](O)c3ccc4c(c3C)COC4=O)CC2)CC1 [Example 128, (R)-5-(1-hydroxy-2-(9-(3-methylpyrazin-2-yl)-3,9-diazaspiro[5.5]undecan-3-yl)ethyl)-4-methylisobenzofuran-1(3H)-one]
68.3 | Cc1c([C@@H](O)CN2CCC3(CC2)CCN(c2cncc(N)n2)CC3)ccc2c1COC2=O [Example 129, (R)-5-(2-(9-(6-aminopyrazin-2-yl)-3,9-diazaspiro[5.5]undecan-3-yl)-1-hydroxyethyl)-4-methylisobenzofuran-1(3H)-one]
553 | Cc1cc(N2CCC3(CCN(C[C@H](O)c4ccc5c(c4C)COC5=O)CC3)CC2)nnc1Cl [Example 130, (R)-5-(2-(9-(6-chloro-5-methylpyridazin-3-yl)-3,9-diazaspiro[5.5]undecan-3-yl)-1-hydroxyethyl)-4-methylisobenzofuran-1(3H)-one]
